Calls of active or inactive are those of the source. Cut-off read from the data, not from the text of the source, for most assays here: actives have a measured EC50 and inactives only a lower limit.
Legend:
Hexokinase = molecular target: T1, Hexokinase (Trypanosoma brucei, UniProt Q38C41); assay: Confirmation assay for inhibitors of Trypanosoma brucei hexokinase 1-Analogue-first series. [Related pubchem assays (depositor defined):AID1430, AID1632, AID2516, AID2560, AID2579, AID2600, AID449725, AID492951]; assay type: functional
T1 sequence (Q38C41 whole entry): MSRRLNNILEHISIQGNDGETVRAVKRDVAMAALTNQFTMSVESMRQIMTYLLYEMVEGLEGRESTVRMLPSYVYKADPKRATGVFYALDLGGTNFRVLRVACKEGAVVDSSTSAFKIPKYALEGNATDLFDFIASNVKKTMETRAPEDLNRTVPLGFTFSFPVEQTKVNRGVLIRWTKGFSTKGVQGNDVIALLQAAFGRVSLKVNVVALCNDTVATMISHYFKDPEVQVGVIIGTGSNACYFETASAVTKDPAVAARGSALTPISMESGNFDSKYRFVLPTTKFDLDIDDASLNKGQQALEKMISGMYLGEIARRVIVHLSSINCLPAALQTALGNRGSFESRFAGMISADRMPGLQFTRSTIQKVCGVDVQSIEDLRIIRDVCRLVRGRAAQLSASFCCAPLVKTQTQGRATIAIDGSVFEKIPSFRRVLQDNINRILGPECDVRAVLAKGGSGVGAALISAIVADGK

[1] = Trypanosoma cruzi growth suppression in host cells – NIH3T3 host cells, beta-gal luminescence, confirmation (AID 2044); assay type: functional, cell-based;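 note: intracellular parasites grown in NIH/3T3 mouse fibroblasts as host cells; luminescent beta-galactosidase reporter signal from transgenic T. cruzi replicating inside host cells; inhibitors lower the luminescence signal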
[2] = NIH3T3 cell viability loss – ATP luminescence, mouse fibroblasts, counter-screen, dose response (AID 2010); assay type: functional, cell-based;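 note: cells exposed to compound for about 90 hours before reading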
[3] = molecular target: T2, Ubiquitin-conjugating enzyme E2 N (Homo sapiens, UniProt P61088); assay type: functional;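 note: Dose-response confirmation in a TR-FRET assay detecting UBC13-driven polyubiquitin chain formation, inhibition measured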
T2 sequence (P61088 whole entry): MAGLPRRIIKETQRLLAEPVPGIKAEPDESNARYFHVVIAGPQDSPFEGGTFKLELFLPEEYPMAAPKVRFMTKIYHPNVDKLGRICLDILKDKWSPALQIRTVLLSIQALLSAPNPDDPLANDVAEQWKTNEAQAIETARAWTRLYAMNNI

[4] = molecular target: T3, Microphthalmia-associated transcription factor (Homo sapiens, UniProt O75030); assay: reducers of TRPM1 reporter luminescence, concentration series – cell-based, SK-MEL-5, cherry-picked, set 3, MITF inhibitor project, dose response (AID 493073); assay type: functional;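 note: SK-MEL-5 melanoma cells with luciferase driven by the MITF target TRPM1 promoter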
T3 sequence (O75030 whole entry): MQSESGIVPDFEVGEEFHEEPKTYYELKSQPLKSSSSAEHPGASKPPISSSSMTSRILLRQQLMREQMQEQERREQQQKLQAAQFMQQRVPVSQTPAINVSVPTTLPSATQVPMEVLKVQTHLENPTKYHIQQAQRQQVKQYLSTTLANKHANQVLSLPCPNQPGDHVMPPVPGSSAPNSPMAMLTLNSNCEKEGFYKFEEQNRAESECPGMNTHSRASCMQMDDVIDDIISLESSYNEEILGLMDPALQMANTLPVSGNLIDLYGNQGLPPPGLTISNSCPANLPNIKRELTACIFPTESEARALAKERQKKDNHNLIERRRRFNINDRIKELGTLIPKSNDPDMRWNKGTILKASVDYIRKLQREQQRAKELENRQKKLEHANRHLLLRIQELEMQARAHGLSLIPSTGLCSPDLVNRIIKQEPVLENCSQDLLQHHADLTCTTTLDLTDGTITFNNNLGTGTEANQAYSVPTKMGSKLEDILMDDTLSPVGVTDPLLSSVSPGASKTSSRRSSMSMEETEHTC

H9c2 = assay: cells; assay type: functional, cell-based; settings: Rattus norvegicus, H9c2, Myocardium;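 note: confirmatory concentration-response retest of ultra-high-throughput screening hits for modulation of myocardial damage; cell death induced by hydrogen peroxide oxidative stress; compound pretreatment for 60 min then peroxide exposure for 2 h; potency is for protecting the cells against peroxide damage rather than for killing them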
[5] = system: Streptococcus sp. 'group A'; assay: Streptococcus pyogenes SK(-)GAS viability under kanamycin – luminescence, BacTiterGlo, confirmation, counter-screen for streptokinase expression inhibitor project, dose response (AID 1900); assay type: functional, organism-based
Streptococcus = assay: GAS UMAA2166 growth inhibition – luminescence, BacTiterGlo, counter-screen for streptokinase expression inhibitor project, dose response (AID 1915); assay type: functional, organism-based;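 note: potency for reduction of bacterial viability or growth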
BJ [6] = assay: growth inhibition of engineered Ras-driven BJ cells – cell-based, alamar blue fluorescence, cherrypicked samples, dose response (AID 2631); assay type: functional; settings: Homo sapiens;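 note: confirmatory dose-response assay in RAS-dependent BJ fibroblasts engineered with TERT, LT and ST, with cytotoxicity read by fluorescence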
BJ [7] = assay: BJ-TERT fibroblast viability loss – cell-based, RAS-independent, luminescence, dose response (AID 1933); assay type: functional; settings: Homo sapiens
BJ [8] = assay: cells; assay type: functional, cell-based; settings: Homo sapiens
BJ [9] = assay: BJ-TERT-LT-ST fibroblast viability loss – cell-based, RAS-independent, luminescence, dose response (AID 1935); assay type: functional; settings: Homo sapiens;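 note: BJ fibroblasts immortalized with TERT plus LT and ST oncogenes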
[10] = DRD fibroblast viability loss – cell-based, non-viral oncogenic, luminescence, dose response (AID 1934); assay type: functional; settings: Homo sapiens
[11] = HEK-293T viability loss after treatment – luminescence, T-cell screen hits, cytotoxicity control for TCR NF-kB inhibitor project, dose response (AID 489026); assay type: functional, cell-based;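 note: cells exposed to compound about 14 hours before the viability readout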
[12] = NIH-3T3 fibroblast cytotoxicity, dose response, cytotoxicity control, cell-based, fluorescence, Alamar Blue, secondary assay (AID 2327); assay type: functional;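 note: NIH-3T3 mouse fibroblasts cultured with fluconazole at 8 µg/mL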
[13] = fluconazole-exposed Candida albicans growth modulators – fluorescence, retest, confirmation (AID 2467); assay type: functional, cell-based
[14] = viability of PTEN-deleted HCT116 cells – cell-based, HCT116 PTEN knockout, dose response (AID 1047); assay type: functional;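 note: HCT116 colon tumor cells with PTEN knocked out; cells exposed to compound for 60 hours before readout; potency for loss of cell viability measured by luminescence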
[15] = viability of HCT116 lacking mutant beta-catenin – cell-based, human colon tumor, dose response (AID 1045); assay type: functional;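 note: HCT116 colon tumor cells with beta catenin knocked out; cells exposed to compound for 60 hours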
[16] = molecular target: T4, Heat shock factor protein 1 (Mus musculus, UniProt P38532); assay: enhancement of HSF1-driven luciferase signal – cell-based, NIH3T3, luminescence, dose retest, confirmation (AID 435004); assay type: functional;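 note: stress induced by proteasome inhibitor MG132 added 30 min after compound; luciferase reporter driven by HSF1 response element in NIH3T3 cells; actives raise luminescence as potentiators of the MG132 stress response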
T4 sequence (P38532 whole entry): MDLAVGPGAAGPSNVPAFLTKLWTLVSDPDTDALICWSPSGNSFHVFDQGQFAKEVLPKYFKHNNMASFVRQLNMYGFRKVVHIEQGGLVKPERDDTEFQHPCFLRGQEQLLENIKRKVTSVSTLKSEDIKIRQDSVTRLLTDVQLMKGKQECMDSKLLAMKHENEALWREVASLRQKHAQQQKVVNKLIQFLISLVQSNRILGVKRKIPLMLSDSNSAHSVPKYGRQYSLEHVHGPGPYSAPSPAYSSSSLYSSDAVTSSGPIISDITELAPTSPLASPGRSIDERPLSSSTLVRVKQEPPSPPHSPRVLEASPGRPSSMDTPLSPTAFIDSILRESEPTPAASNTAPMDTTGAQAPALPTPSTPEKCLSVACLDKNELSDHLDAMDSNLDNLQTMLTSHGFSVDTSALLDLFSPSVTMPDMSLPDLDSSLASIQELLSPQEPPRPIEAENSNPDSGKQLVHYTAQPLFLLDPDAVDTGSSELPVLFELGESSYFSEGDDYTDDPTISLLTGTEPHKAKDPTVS

Structure (SMILES): O=c1c2ccc(Br)cc2sn1-c1ccccc1
- IC50 (Hexokinase): 3.61 µM (active)

Structure (SMILES): O=c1c2ccccc2on1-c1ccccc1
- IC50 (Hexokinase): > 25 µM (inactive)

Structure (SMILES): COc1cc(-c2[nH]c(C(=O)NC3CCN(Cc4ccccc4)CC3)cc3c4ccccc4nc2-3)cc(OC)c1OC
- EC50 [1]: 0.125 µM (active)
- EC50 [2]: 5.61 µM (active)
- IC50 [3]: > 20 µM (inactive)

Structure (SMILES): O=S1(=O)CCC(NC(=S)SCc2ccccc2Br)C1 (stereo not given)
- AC50 [4]: 25.6 µM (active)

Structure (SMILES): COc1ccc(NC(=O)CCc2nc(O)c3ccccc3n2)cc1S(=O)(=O)N1CCCCC1
- IC50 (H9c2): > 79 µM (inactive)

Structure (SMILES): O=C(O)c1ccc2c(c1)S(=O)(=O)c1cc(N3CCN(c4cnccn4)CC3)ccc1C2=O
- IC50 (H9c2): > 79 µM (inactive)

Structure (SMILES): CCCC(c1nnnn1C(C)(C)CC)N(CCCO)Cc1cc2cc(C)cc(C)c2nc1O (stereo not given)
- IC50 (H9c2): 38.7 µM (inactive)

Structure (SMILES): CCOC(=O)CSc1nnc(CSc2nc(O)c3ccccc3n2)n1-c1ccccc1
- IC50 (H9c2): > 79 µM (inactive)

Structure (SMILES): CC1(C)N=C(N)N=C(N)N1c1ccc(Oc2ccc(Cl)cc2)c(Cl)c1
- EC50 [5]: < 0.06 µM (active)
- EC50 [1]: 0.177 µM (active)
- EC50 [2]: 14.3 µM (active)
- EC50 (Streptococcus): 0.085 µM (active)
- EC50 (BJ [6]): > 133 µM (inactive)

Structure (SMILES): CC(Oc1ccc(Cl)cc1Cl)C(=O)Nc1ccncc1 (stereo not given)
- EC50 (BJ [7]): > 150 µM (not active)
- EC50 (BJ [8]): 23.9 µM (active)
- EC50 (BJ [9]): > 150 µM (not active)
- EC50 [10]: > 150 µM (not active)
- IC50 [11]: > 80 µM (inactive)

Structure (SMILES): CCOC(=O)C(=Cc1cc(=O)c(OC)co1)C(=O)OCC
- EC50 [12]: 8.28 µM (inconclusive)
- EC50 (BJ [7]): 8.75 µM (active)
- EC50 (BJ [8]): 7.57 µM (inconclusive)
- EC50 [13]: 0.367 µM (active)
- EC50 [14]: 3.55 µM (active)
- EC50 [15]: 2.93 µM (active)
- EC50 (BJ [9]): 4.28 µM (active)
- EC50 [10]: 4.24 µM (inconclusive)
- EC50 [16]: 15.2 µM (active)
- EC50 (BJ [6]): 0.592 µM (active)
